Key:
[1] = molecular target: T1, PTGER2 (EP2) (Homo sapiens, UniProt P43116); assay: hEP2 b-arrestin assay (PathHunter HEK 293 PTGER2 b-arrestin cells); format: cell-based; conditions: antagonistic activity, beta-arrestin assay; read-out: hEP2 b-arr IC50
T1 construct: host or cells: HEK 293 (PathHunter PTGER2 b-arrestin cell line)
Method: (§1) The antagonistic activities of the compounds of formula (I) on the EP2 and EP4 receptors are determined in accordance with the following experimental method.
(§2) The assay is using the PathHunter™ HEK 293 PTGER2 and PTGER4 b-arrestin cell lines from DiscoverX. The system is based on the Enzyme Fragment Complementation Technology. Two complementing fragments of the b-galactosidase enzyme are expressed within stably transfected cells. The larger portion of b-gal, termed EA for Enzyme Acceptor, is fused to the C-terminus of b-arrestin 2. The smaller fragment, termed ProLink™ tag, is fused to PTGER2 (EP2) or PTRGER4 (EP4) at the C-terminus. Upon activation, b-arrestin is recruited which forces the interaction of ProLink and EA, allowing complementation of the two fragments of b-gal and the formation of a functional enzyme which is capable of hydrolysing the substrate and generating a chemiluminescent signal.
(§3) The HEK 293 PTGER2 b-arrestin cells (DiscoverX 93-021-4C1) are detached from culture dishes with a cell dissociation buffer (Invitrogen, 13151-014), and collected in growing medium (GM: DMEM+Glutamax-I (Invitrogen 32430)/10% FCS, 1% Penicilin/streptomycin). 5000 cells per well of a 384 well plate (white with white bottom Greiner 781080) are seeded in 20 ul per well of GM. Plate is incubated at 37° C., 5% C02 for 24 hours.
(§4) Stock solutions of test compounds are made at a concentration of 10 mM in DMSO, and serially diluted in DMSO to concentrations required for inhibition dose response curves (tested concentration range 10 μM-2 nM or 1 μM-0.2 nM).
PGE2 (Cayman 14010, stock solution: 10 mM in DMSO) is used as agonist at 5 μM final concentration, corresponding to EC80.
Five microliters of diluted compounds are transferred into the assay plate. Plate is pre-incubated 15 minutes at 37° C. Then five microliters of PGE2 (final conc. 5 μM) are transferred into the assay plate. Plate is incubated 120 minutes at 37° C.
(§5) PathHunter Glo Detection Kit components are thawed and mix according to manufacturer's instructions: 1 part Galacton Star Substrate with 5 parts Emerald II™ Solution, and 19 parts of PathHunter Cell Assay Buffer, respectively. Twelve μl of reagent are transferred to the assay plate and incubate for 1 hour at room temperature in the dark. Luminescence counts are read on a BMG Fluostar Optima reader according to manufacturer's instructions.
(§6) For each compound concentration calculate of the percentage of activity compared to DMSO control value as average±STDEV. (each concentration is measured in duplicate)
(§7) IC50 values and curves are generated with XLfit software (IDBS) using Dose-Response One Site model 203. When compounds were measured multiple times, mean values are given.

[2] = molecular target: T2, PTGER4 (EP4) (Homo sapiens, UniProt P35408); assay: hEP4 b-arrestin assay (PathHunter HEK 293 PTGER4 b-arrestin cells); format: cell-based; conditions: antagonistic activity, beta-arrestin assay; read-out: hEP4 b-arr IC50
T2 construct: host or cells: HEK 293 (PathHunter PTGER4 b-arrestin cell line)
Method: as §1, §2
as §3, with “PTGER4” for “PTGER2”, “93-030-4C1)” for “93-021-4C1)”
as §4
PGE2 (Cayman 14010, stock solution: 100 uM in DMSO) is used as agonist at 20 nM final concentration, corresponding to EC80.
Five microliters of diluted compounds are transferred into the assay plate. Plate is pre-incubated 15 minutes at 37° C. Then five microliters of PGE2 (final conc. 20 nM) are transferred into the assay plate. Plate is incubated 120 minutes at 37° C.
as §5, §6, §7

T1 sequence (P43116 whole entry): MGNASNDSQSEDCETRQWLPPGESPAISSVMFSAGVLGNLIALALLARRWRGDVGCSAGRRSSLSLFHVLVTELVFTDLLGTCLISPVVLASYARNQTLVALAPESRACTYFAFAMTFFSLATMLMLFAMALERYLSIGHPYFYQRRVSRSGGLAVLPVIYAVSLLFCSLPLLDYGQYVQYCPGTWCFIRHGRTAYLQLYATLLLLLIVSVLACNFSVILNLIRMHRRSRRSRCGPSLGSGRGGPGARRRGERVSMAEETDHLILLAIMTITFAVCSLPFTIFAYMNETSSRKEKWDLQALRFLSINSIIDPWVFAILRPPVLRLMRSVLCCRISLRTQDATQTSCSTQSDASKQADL
T2 sequence (P35408 whole entry): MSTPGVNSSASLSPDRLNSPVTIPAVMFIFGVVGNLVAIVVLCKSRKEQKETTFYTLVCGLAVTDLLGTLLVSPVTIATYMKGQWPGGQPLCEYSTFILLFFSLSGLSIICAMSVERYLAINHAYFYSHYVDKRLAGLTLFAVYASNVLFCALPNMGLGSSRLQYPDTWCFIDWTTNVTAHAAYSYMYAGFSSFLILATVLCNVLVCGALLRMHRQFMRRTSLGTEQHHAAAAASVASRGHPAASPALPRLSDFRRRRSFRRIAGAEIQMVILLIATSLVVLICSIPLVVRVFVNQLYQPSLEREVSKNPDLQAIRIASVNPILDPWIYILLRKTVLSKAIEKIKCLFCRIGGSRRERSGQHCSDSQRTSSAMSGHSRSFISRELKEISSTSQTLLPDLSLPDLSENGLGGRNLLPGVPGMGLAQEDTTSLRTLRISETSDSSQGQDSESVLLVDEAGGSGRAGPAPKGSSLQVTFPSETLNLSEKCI

Molecule	IC50 [1]	IC50 [2]
CCCc1cc(-c2cc(NCCc3c(C)sc4c(C)cc(F)cc34)ncn2)ccc1C(N)=O [Example 206, 4-{6-[2-(5-Fluoro-2,7-dimethyl-benzo[b]thiophen-3-yl)-ethylamino]-pyrimidin-4-yl}-2-propyl-benzamide]	0.01 µM	0.288 µM
CCCc1cc(-c2cc(NCCc3c(C)sc4c(C)cc(F)cc34)ncn2)ccc1C(=O)NCC(C)(C)O [Example 207, 4-{6-[2-(5-Fluoro-2,7-dimethyl-benzo[b]thiophen-3-yl)-ethylamino]-pyrimidin-4-yl}-N-(2-hydroxy-2-methyl-propyl)-2-propyl-benzamide]	0.026 µM	0.335 µM
CCCc1cc(-c2cc(NCCc3c(C)sc4c(C)cc(F)cc34)ncn2)ccc1C(=O)NCCOC [Example 208, 4-{6-[2-(5-Fluoro-2,7-dimethyl-benzo[b]thiophen-3-yl)-ethylamino]-pyrimidin-4-yl}-N-(2-methoxy-ethyl)-2-propyl-benzamide]	0.062 µM	0.837 µM
CCCc1cc(-c2cc(NCCc3c(C)sc4c(C)cc(F)cc34)ncn2)ccc1C(=O)NCCO [Example 209, 4-{6-[2-(5-Fluoro-2,7-dimethyl-benzo[b]thiophen-3-yl)-ethylamino]-pyrimidin-4-yl}-N-(2-hydroxy-ethyl)-2-propyl-benzamide]	0.008 µM	0.28 µM
CCCc1cc(-c2cc(NCCc3c(C)sc4c(C)cc(F)cc34)ncn2)ccc1C(=O)NC [Example 210, 4-{6-[2-(5-Fluoro-2,7-dimethyl-benzo[b]thiophen-3-yl)-ethylamino]-pyrimidin-4-yl}-N-methyl-2-propyl-benzamide]	0.019 µM	0.469 µM
CCOc1cc(-c2cc(NCCc3c(C)sc4c(C)cc(F)cc34)ncn2)ccc1C(=O)NCCO [Example 211, 2-Ethoxy-4-{6-[2-(5-fluoro-2,7-dimethyl-benzo[b]thiophen-3-yl)-ethylamino]-pyrimidin-4-yl}-N-(2-hydroxy-ethyl)-benzamide]	0.03 µM	0.367 µM
CCOc1cc(-c2cc(NCCc3c(C)sc4c(C)cc(F)cc34)ncn2)ccc1C(=O)NC [Example 212, 2-Ethoxy-4-{6-[2-(5-fluoro-2,7-dimethyl-benzo[b]thiophen-3-yl)-ethylamino]-pyrimidin-4-yl}-N-methyl-benzamide]	0.011 µM	0.667 µM
CCOc1cc(-c2cc(NCCc3c(C)sc4c(C)cc(F)cc34)ncn2)ccc1C(N)=O [Example 213, 2-Ethoxy-4-{6-[2-(5-fluoro-2,7-dimethyl-benzo[b]thiophen-3-yl)-ethylamino]-pyrimidin-4-yl}-benzamide]	0.01 µM	0.405 µM
Cc1sc2c(C)cc(F)cc2c1CCNc1cc(-c2cnn(C(C)(C)C(=O)O)c2)ncn1 [Example 214, 2-(4-{6-[2-(5-Fluoro-2,7-dimethyl-benzo[b]thiophen-3-yl)-ethylamino]-pyrimidin-4-yl}-pyrazol-1-yl)-2-methyl-propionic acid]	0.237 µM	0.388 µM
CCOc1cc(-c2cc(NCCc3c(C)sc4c(C)cc(F)cc34)ncn2)ccc1C1(C(=O)O)CC1 [Example 215, 1-(2-Ethoxy-4-{6-[2-(5-fluoro-2,7-dimethyl-benzo[b]thiophen-3-yl)-ethylamino]-pyrimidin-4-yl}-phenyl)-cyclopropanecarboxylic acid]	0.143 µM	0.151 µM
CCOc1c(CC(=O)O)ccc(-c2cc(NCCc3c(C)sc4c(C)cc(F)cc34)ncn2)c1F [Example 216, (2-Ethoxy-3-fluoro-4-{6-[2-(5-fluoro-2,7-dimethyl-benzo[b]thiophen-3-yl)-ethylamino]-pyrimidin-4-yl}-phenyl)-acetic acid]	0.041 µM	0.234 µM
CCOc1cc(-c2cc(NCCc3c(C)sc4c(C)cc(F)cc34)ncn2)c(F)cc1CC(=O)O [Example 217, (2-Ethoxy-5-fluoro-4-{6-[2-(5-fluoro-2,7-dimethyl-benzo[b]thiophen-3-yl)-ethylamino]-pyrimidin-4-yl}-phenyl)-acetic acid]	0.126 µM	0.847 µM
CCCc1cc(-c2cc(NCCc3c(C)sc4c(C)cc(F)cc34)ncn2)ccc1C1(C(=O)O)CC1 [Example 218, 1-(4-{6-[2-(5-Fluoro-2,7-dimethyl-benzo[b]thiophen-3-yl)-ethylamino]-pyrimidin-4-yl}-2-propyl-phenyl)-cyclopropanecarboxylic acid]	0.095 µM	0.143 µM
CCCc1cc(-c2cc(NCCc3c(C)sc4c(C)cc(F)cc34)ncn2)sc1CC(=O)O [Example 219, (5-{6-[2-(5-Fluoro-2,7-dimethyl-benzo[b]thiophen-3-yl)-ethylamino]-pyrimidin-4-yl}-3-propyl-thiophen-2-yl)-acetic acid]	0.041 µM	0.211 µM
Cc1sc2c(C)cc(F)cc2c1CCNc1cc(-c2cc(OC(F)F)c(CC(=O)O)s2)ncn1 [Example 220, (3-Difluoromethoxy-5-{6-[2-(5-fluoro-2,7-dimethyl-benzo[b]thiophen-3-yl)-ethylamino]-pyrimidin-4-yl}-thiophen-2-yl)-acetic acid]	0.044 µM	0.407 µM
Cc1sc2c(C)cc(F)cc2c1CCNc1cc(-c2cc3cccc(C(=O)O)c3[nH]2)ncn1 [Example 221, 2-{6-[2-(5-Fluoro-2,7-dimethyl-benzo[b]thiophen-3-yl)-ethylamino]-pyrimidin-4-yl}-1H-indole-7-carboxylic acid]	0.024 µM	0.908 µM
Cc1sc2c(C)cc(F)cc2c1CCNc1cc(-c2cc3cccc(C(=O)O)c3s2)ncn1 [Example 222, 2-{6-[2-(5-Fluoro-2,7-dimethyl-benzo[b]thiophen-3-yl)-ethylamino]-pyrimidin-4-yl}-benzo[b]thiophene-7-carboxylic acid]	0.014 µM	0.453 µM
COc1cc(-c2cc(NCCc3c(C)sc4c(C)cc(F)cc34)ncn2)ccc1CCC(=O)O [Example 223, 3-(4-{6-[2-(5-Fluoro-2,7-dimethyl-benzo[b]thiophen-3-yl)-ethylamino]-pyrimidin-4-yl}-2-methoxy-phenyl)-propionic acid]	0.035 µM	0.487 µM
(4-{6-[2-(2-Cyano-benzo[b]thiophen-3-yl)-ethylamino]-pyrimidin-4-yl}-2-ethoxy-phenyl)-acetic acid [Example 175]	0.089 µM	0.492 µM

From patent US11325899B2, “Benzofurane and benzothiophene derivatives as PGE2 receptor modulators” (IDORSIA PHARMACEUTICALS LTD, priority 2017, dated 2022)
